This note sets out measurements from patent US20130190407A1, “CALCIUM RECEPTOR-ACTIVE MOLECULES” (NPS Pharmaceuticals, Inc., priority 1991, published 2013).

Usually EC50 stands for the concentration that produces a half-maximal response.

Common to all, as to assay type: cell-based
Experiment [1] addresses T1, parathyroid cell calcium receptor (Bos taurus, UniProt P35384).
T1 sequence (P35384 20-1085): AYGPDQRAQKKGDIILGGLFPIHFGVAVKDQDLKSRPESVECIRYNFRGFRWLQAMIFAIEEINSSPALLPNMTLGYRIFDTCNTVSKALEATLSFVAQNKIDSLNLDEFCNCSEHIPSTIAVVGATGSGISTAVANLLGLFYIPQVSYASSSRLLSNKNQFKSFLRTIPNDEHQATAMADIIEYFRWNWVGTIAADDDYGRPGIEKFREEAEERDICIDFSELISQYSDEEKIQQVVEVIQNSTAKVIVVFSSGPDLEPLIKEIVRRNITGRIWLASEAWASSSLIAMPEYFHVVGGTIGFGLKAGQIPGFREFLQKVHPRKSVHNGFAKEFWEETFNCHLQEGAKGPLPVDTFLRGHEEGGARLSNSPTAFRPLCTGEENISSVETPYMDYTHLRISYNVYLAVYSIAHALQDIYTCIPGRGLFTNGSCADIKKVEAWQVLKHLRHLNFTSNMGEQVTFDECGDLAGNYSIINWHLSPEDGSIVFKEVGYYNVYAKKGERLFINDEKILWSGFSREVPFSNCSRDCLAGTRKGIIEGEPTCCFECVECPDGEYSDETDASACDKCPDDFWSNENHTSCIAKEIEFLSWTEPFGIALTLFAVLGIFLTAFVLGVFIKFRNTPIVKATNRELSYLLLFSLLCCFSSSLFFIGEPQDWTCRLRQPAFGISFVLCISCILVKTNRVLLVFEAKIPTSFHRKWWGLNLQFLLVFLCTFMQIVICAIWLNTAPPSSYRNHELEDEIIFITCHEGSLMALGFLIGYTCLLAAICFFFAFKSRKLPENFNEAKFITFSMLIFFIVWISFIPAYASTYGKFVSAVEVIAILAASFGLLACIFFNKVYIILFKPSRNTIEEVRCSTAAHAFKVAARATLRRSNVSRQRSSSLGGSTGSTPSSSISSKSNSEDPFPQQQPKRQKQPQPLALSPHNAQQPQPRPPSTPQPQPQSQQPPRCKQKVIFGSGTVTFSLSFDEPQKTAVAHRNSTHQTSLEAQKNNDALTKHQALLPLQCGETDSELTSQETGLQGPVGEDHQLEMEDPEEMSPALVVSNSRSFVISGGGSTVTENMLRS
In words: Cl- current in Xenopus oocytes injected with bovine parathyroid cell poly(A)+-mRNA. Set-up: Whole pieces of gland were used to prepare mRNA that directs the expression of the calcium receptor in Xenopus oocytes; expressed in transfected cells; host or cells: Xenopus laevis oocytes injected with total poly(A)+ mRNA from bovine parathyroid glands. The note with it: 100 μM. As to the method:
(§1) Following incubation, an oocyte was placed into a 100-μl plastic chamber and superfused with MBS at a flow rate of 0.5 ml/min using a peristaltic pump. Test molecules or inorganic polycations were added by rapidly moving the tubing into different buffers. Recording and current-passing electrodes were constructed from thin-wall capillary tubing pulled to a resistance of 1-3 Mohms and filled with 3 M KCl. […] Currents were recorded directly onto a strip chart recorder.
Dissociated bovine parathyroid cells were used to further explore the mechanism of action of NPS R-467 at the receptor level. […] It does, however, elicit responses in parathyroid cells and in oocytes when a small amount of extracellular Ca^2+ is present.

In experiment [2] the target is T1, parathyroid cell calcium receptor. In words: Mobilization of intracellular Ca2+ ([Ca2+]i, fura-2) in bovine parathyroid cells. Set-up: Parathyroid glands were obtained from freshly slaughtered calves (12-15 weeks old); endogenous in cells; host or cells: dissociated primary bovine (calf) parathyroid cells. The settings on record: Table 6; bovine parathyroid cells; read-out: EC50 PARATHYROID
Protocol: This section describes procedures used to obtain and treat parathyroid cells from calves and humans. […] Human parathyroid glands, were obtained from patients undergoing surgical removal of parathyroid tissue for primary or uremic hyperparathyroidism (uremic HPT), and were treated similarly to bovine tissue.
Glands were trimmed of excess fat and connective tissue and then minced with fine scissors into cubes approximately 2-3 mm on a side. Dissociated parathyroid cells were prepared by collagenase digestion and then purified by centrifugation in Percoll buffer. The resultant parathyroid cell preparation was essentially devoid of red blood cells, adipocytes, and capillary tissue as assessed by phase contrast microscopy and Sudan black B staining. Dissociated and purified parathyroid cells were present as small clusters containing 5 to 20 cells.
The cells were then pelleted, resuspended in the same buffer, but lacking the ester, and incubated a further 15 minutes at 37° C. The cells were subsequently washed twice with PCB containing 0.5 mM CaCl2 and 0.5% BSA and maintained at room temperature (about 20° C.) Immediately before use, the cells were diluted five-fold with prewarmed 0.5 mM CaCl2-PCB to obtain a final BSA concentration of 0.1%. The concentration of cells in the cuvette used for fluorescence recording was 1−2×10^6/ml.
The fluorescence of indicator-loaded cells was measured at 37° C. in a spectrofluorimeter (Biomedical Instrumentation Group, University of Pennsylvania, Philadelphia, Pa.) equipped with a thermostated cuvette holder and magnetic stirrer using excitation and emission wavelengths of 340 and 510 nm, respectively. […] Leakage of dye is dependent on temperature and most occurs within the first 2 minutes after warming the cells in the cuvette. Dye leakage increases only very slowly thereafter. To correct the calibration for dye leakage, cells were placed in the cuvette and stirred at 37° C. for 2-3 minutes. The cell suspension was then removed, the cells pelleted, and the supernatant returned to a clean cuvette. […] This estimate was subtracted from the apparent Fmin.

Experiment [3] has as its target T2, osteoclast calcium receptor (Rattus norvegicus, UniProt P48442).
T2 sequence (P48442 20-1079): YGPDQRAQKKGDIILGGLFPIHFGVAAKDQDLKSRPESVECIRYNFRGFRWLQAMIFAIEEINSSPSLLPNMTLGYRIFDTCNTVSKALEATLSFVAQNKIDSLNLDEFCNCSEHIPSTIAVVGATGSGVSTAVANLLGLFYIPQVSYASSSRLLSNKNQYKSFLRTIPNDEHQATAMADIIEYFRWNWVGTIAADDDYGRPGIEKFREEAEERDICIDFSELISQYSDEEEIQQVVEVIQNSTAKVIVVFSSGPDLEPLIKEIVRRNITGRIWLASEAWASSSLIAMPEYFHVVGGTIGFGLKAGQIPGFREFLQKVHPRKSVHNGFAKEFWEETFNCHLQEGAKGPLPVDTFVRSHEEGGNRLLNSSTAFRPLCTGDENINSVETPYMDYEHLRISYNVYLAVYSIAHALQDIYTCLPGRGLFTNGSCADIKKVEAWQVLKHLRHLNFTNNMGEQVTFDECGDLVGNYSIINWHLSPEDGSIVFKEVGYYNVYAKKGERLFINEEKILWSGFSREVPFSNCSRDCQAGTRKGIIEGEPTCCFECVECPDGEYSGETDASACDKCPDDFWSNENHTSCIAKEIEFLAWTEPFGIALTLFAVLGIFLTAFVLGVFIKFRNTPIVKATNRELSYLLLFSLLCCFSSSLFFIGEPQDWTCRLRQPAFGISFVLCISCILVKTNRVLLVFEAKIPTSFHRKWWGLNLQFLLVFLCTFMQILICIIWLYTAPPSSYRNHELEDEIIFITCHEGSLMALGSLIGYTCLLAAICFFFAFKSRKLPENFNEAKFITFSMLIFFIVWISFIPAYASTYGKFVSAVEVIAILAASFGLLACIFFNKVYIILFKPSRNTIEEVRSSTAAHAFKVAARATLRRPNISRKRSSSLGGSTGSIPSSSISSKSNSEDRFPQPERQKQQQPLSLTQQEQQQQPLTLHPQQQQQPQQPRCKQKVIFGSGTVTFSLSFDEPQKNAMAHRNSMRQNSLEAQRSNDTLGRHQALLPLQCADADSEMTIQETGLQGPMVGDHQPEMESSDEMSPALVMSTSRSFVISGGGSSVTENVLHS
In words: [Ca2+]i (indo-1) in single rat osteoclasts.

For experiment [4], the target named is T3, bovine parathyroid cell calcium receptor (Bos taurus, UniProt P35384).
T3 construct: isolation of a single clone (BoPCaR 1) with a cDNA insert of 5.3 kb; expressed in transfected cells
T3 sequence (P35384 20-1085): T1 sequence (P35384 20-1085)
As to the kind of experiment: Cl- current in Xenopus oocytes injected with BoPCaR 1. The protocol:
Several pharmacological and biochemical criteria were used to identify this clone as encoding a bona fide bovine parathyroid Ca^2+ receptor. […] These responses increased markedly over a period of one to four days after injection of the eggs with cRNA prepared from the BoPCaR 1 cDNA. Furthermore, the ranges of the concentrations of the two cations eliciting this response were very similar to those shown previously to act on bovine parathyroid cells in vitro.
Xenopus oocytes were injected with BoPCaR 1, the 5.3 Kb cDNA encoding a bovine parathyroid cell calcium receptor as described in Example 25. After two to three days, Cl^− currents were examined in the oocytes using a two-electrode voltage clamp.
Xenopus oocytes were injected with BoPCaR 1 as described in Example 25. After two to three days, Cl^− currents were examined in the oocytes using two electrode voltage clamp.

For a further experiment, the system named is Bovine parathyroid cells. The note with it: 10 μM isoproterenol 15 min; no pertussis toxin; 2.0 mM Ca2+, 200 μM spermine, 30 μM neomycin B, 2 μg/ml protamine; mean ± SEM. The protocol:
This section describes measuring cyclic AMP levels. Cells were incubated as above for PTH secretion studies and at the end of the incubation, a 0.15-ml sample was taken and transferred to 0.85 ml of hot (70° C.) water and heated at this temperature for 5-10 minutes. The tubes were subsequently frozen and thawed several times and the cellular debris sedimented by centrifugation. Portions of the supernatant were acetylated and cyclic AMP concentrations determined by radioimmunoassay.
Bovine parathyroid cells were cultured for 16 hours with or without 100 ng/ml pertussis toxin. […] Each value is the mean±SEM of three experiments.

For another experiment, the target named is T4, calcium receptor (Homo sapiens, UniProt P41180).
T4 construct: poly(A)^+-enriched mRNA from human parathyroid tissue (hyperplastic glands from a case of secondary HPT); expressed in transfected cells; host or cells: Xenopus laevis oocytes injected with poly(A)+ mRNA from hyperplastic human parathyroid glands
T4 sequence (P41180 20-1078): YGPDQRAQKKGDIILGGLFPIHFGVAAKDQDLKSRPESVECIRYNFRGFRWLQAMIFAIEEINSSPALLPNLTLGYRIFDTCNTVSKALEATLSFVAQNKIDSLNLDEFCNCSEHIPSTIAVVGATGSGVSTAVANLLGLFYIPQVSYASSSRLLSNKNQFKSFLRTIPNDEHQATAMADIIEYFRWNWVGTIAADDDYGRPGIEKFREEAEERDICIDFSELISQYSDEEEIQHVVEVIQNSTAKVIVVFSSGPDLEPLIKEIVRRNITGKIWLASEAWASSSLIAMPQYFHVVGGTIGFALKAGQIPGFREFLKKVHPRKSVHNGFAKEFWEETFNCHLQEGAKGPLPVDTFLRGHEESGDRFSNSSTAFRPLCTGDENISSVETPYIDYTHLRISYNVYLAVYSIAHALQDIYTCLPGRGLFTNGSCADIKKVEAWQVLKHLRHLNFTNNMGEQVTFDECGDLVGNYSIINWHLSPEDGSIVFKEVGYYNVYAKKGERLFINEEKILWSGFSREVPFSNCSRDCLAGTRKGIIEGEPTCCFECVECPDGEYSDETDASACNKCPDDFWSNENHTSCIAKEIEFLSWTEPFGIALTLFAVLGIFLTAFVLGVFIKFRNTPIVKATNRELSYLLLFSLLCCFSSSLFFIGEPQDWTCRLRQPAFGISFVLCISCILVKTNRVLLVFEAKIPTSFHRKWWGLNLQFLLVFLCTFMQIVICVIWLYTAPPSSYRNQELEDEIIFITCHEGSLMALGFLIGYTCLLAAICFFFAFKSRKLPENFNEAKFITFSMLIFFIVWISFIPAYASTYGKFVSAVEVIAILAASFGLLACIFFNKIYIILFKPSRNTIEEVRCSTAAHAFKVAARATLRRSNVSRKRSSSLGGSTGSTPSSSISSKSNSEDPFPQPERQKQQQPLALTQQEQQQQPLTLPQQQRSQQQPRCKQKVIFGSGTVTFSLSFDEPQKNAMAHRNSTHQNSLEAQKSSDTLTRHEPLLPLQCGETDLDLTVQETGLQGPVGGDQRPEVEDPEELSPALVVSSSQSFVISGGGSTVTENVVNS
As to the kind of experiment: Cl- current in Xenopus oocytes injected with human parathyroid cell mRNA. The note with it: hexacyclen 135 μM, neomycin 100 μM, NPS 382 5 mM. As to the method:
Oocytes were injected with poly(A)^+-enriched mRNA from human parathyroid tissue (hyperplastic glands from a case of secondary HPT).
as §1
Using this screen allows one to test for an action directly on the calcium receptor. Oocytes expressing the calcium receptor also responded to several molecules active on intact parathyroid cells when screened as follows. […] This offers rather compelling evidence showing that these molecules act on the calcium receptor or on some other protein intimately associated with its function.

Take `CC(NCCC(c1ccccc1)c1ccccc1)c1ccccc1` (racemic) [Fendiline, fendiline]: the Cl- current result in experiment [1] is “elicits oscillatory increases in Cl^− current”. Further, in experiment [2], the EC50 is 15 µM. For the molecule `NCCCCNCCCN` [Spermidine, spermidine], the “compounds that caused any large increase in [Ca2+]i” value in experiment [3] was “none”. With `COc1cccc([C@H](C)NCCCc2ccccc2Cl)c1` [NPS S-568], the “concentration eliciting Cl- current responses” value in experiment [4] was 100 µM. Turning to `NCCCNCCCCNCCCN` [Spermine, spermine], the “cyclic AMP (% of control), control” value in the experiment on Bovine parathyroid cells is on record as 23 ± 5 % of control.

As for `NCCCN(CCCN)CCCNCCCCNCCCN(CCCN)CCCN` [NPS 382, N^1, N^1, N^5, N^14, N^14-tetrakis-(3-aminopropyl)spermine], the “mobilization of intracellular Ca2+ in oocytes” value on calcium receptor is “effective”. With `NCCCNCCCCNCCCNCCCN(O)CCCNC(=O)Cc1c[nH]c2ccccc12` [NPS 017, Agatoxin 489], the Cl- current entry in experiment [4] (1 mM extracellular Ca2+) is reported as “oscillatory increases in the Cl^− current”. In experiment [3] (Table 6, rat osteoclasts, indo-1), the “EC50 OSTEOCLAST” value is “inactive”.
